EPA's ToxRefDB 2

Key:
[1] = tested on: mouse; conditions: Subchronic oral toxicity in rodents, b6c3f1, Feed, dose end: 90 day, group: systemic
[2] = tested on: dog; conditions: Subchronic oral toxicity in nonrodent, beagle, Feed, dose end: 13 week, group: systemic
[3] = tested on: mouse; conditions: Carcinogenicity, cd1, Oral, Feed, dose end: 18 month, group: systemic
[4] = tested on: rat; conditions: Prenatal developmental toxicity study, sprague dawley, Oral, Gavage/Intubation, dose end: 15 GD
[5] = tested on: rabbit; conditions: Prenatal developmental toxicity study, new zealand white, Oral, Gavage/Intubation, dose end: 19 GD
[6] = tested on: rat; conditions: Developmental neurotoxicity study; wistar; Oral; Gavage/Intubation; dose end: 90 PND; group: cannot be grouped; systemic / in life observation / clinical signs / poor maternal care + systemic / in life observation / clinical signs / grip strength + …
[7] = tested on: rat; conditions: Subchronic oral toxicity in rodents, fischer, Feed, dose end: 90 day, group: systemic, systemic / hematology / hematocrit (hct) / hematocrit (hct) + systemic / hematology / hemoglobin (hgb) / hemoglobin (hgb) + systemic / …
[8] = tested on: rat; conditions: Prenatal developmental toxicity study, sprague dawley, Oral, Gavage/Intubation, dose end: 15 GD; remark: listed apart in the source
[9] = tested on: dog; conditions: Chronic toxicity, beagle, Oral, Feed, dose end: 52 week, group: systemic
[10] = tested on: rat; conditions: Prenatal developmental toxicity study, sprague dawley, Oral, Gavage/Intubation, dose end: 15 GD; remark: listed apart in the source
[11] = systemic / hematology / erythrocyte (rbc) count differential / erythrocyte (rbc) + systemic / hematology / hematocrit (hct) / hematocrit (…
[12] = systemic / clinical chemistry / alkaline phosphatase (alp/alk) / alkaline phosphatase (alp/alk) + systemic / hematology / hematocrit (hct…
[13] = systemic / pathology microscopic / adrenal gland / amyloid deposition + systemic / pathology microscopic / kidney / amyloid deposition + …
[14] = group: developmental, developmental / developmental malformation / bone / incomplete ossification + developmental / developmental malformation / bone / …
[15] = group: maternal, systemic / organ weight / spleen / relative to brain weight + systemic / pathology microscopic / spleen / hematopoietic cell proliferation
[16] = group: maternal, systemic / organ weight / spleen / relative to brain weight + systemic / pathology microscopic / spleen / hematopoietic cell proliferation…
[17] = group: developmental, systemic / in life observation / body weight / fetal weight
[18] = group: developmental, systemic / in life observation / body weight / fetal weight + developmental / developmental malformation / bone / fused + developmental / …
[19] = group: maternal, reproductive / reproductive performance / aborted / aborted + reproductive / reproductive performance / resorptions / resorptions + systemic…
[20] = group: developmental, developmental / developmental malformation / bone / ossification sites + systemic / in life observation / body weight / fetal weight
[21] = group: developmental, developmental / developmental malformation / bone / ossification sites + systemic / in life observation / body weight / fetal weight + …
[22] = systemic / hematology / microcytosis / microcytosis + systemic / clinical chemistry / albumin / albumin + systemic / clinical chemistry / …
[23] = group: maternal, reproductive / reproductive performance / postimplantation loss / postimplantation loss + reproductive / reproductive performance / …

Cc1nn(-c2cc(NS(C)(=O)=O)c(Cl)cc2Cl)c(=O)n1C(F)F [Sulfentrazone]
LOAEL [1, 11]: 108 mg/kg/day
NEL [1, 11]: 17.8 mg/kg/day
NOAEL [1, 11]: 60 mg/kg/day
LEL ([1]; systemic / hematology / hematocrit (hct) / hematocrit (hct)): 60 mg/kg/day
LOAEL [2, 12]: 57 mg/kg/day
NEL [2, 12]: 10 mg/kg/day
NOAEL [2, 12]: 28 mg/kg/day
LEL ([2]; systemic / organ weight / liver / absolute): 28 mg/kg/day
LOAEL ([3]; systemic / hematology / hematocrit (hct) / hematocrit (hct) + systemic / hematology / hemoglobin (hgb) / hemoglobin (hgb)): 160 mg/kg/day
NOAEL ([3]; systemic / hematology / hematocrit (hct) / hematocrit (hct) + systemic / hematology / hemoglobin (hgb) / hemoglobin (hgb) + systemic / …): 93.9 mg/kg/day
LEL [3, 13]: 46.6 mg/kg/day
NEL [3, 13]: < 46.6 mg/kg/day
LEL [4, 14]: 25 mg/kg/day
LOAEL [4, 14]: 25 mg/kg/day
NEL [4, 14]: 10 mg/kg/day
NOAEL [4, 14]: 10 mg/kg/day
LOAEL [4, 15]: 50 mg/kg/day
LEL [4, 16]: 50 mg/kg/day
NEL [4, 16]: 25 mg/kg/day
NOAEL [4, 16]: 25 mg/kg/day
LOAEL [5, 17]: 375 mg/kg/day
LEL ([5]; group: developmental, systemic / in life observation / body weight / fetal weight + developmental / developmental malformation / bone / fused): 250 mg/kg/day
NEL [5, 18]: 100 mg/kg/day
NOAEL [5, 18]: 250 mg/kg/day
LOAEL [5, 19]: 375 mg/kg/day
NEL [5, 19]: 100 mg/kg/day
NOAEL [5, 19]: 250 mg/kg/day
LEL ([5]; group: maternal, reproductive / reproductive performance / resorptions / resorptions + systemic / in life observation / body weight / body weight gain + …): 250 mg/kg/day
LEL [6]: 25 mg/kg/day
LOAEL [6]: > 50 mg/kg/day
NEL [6]: < 25 mg/kg/day
NOAEL [6]: ≥ 50 mg/kg/day
LOAEL [7]: 65.8 mg/kg/day
NOAEL [7]: 19.9 mg/kg/day
LEL [8, 20]: 25 mg/kg/day
LOAEL [8, 20]: 25 mg/kg/day
NEL [8, 21]: 10 mg/kg/day
NOAEL [8, 21]: 10 mg/kg/day
LOAEL [8, 15]: 50 mg/kg/day
LEL [8, 16]: 50 mg/kg/day
NEL [8, 16]: 25 mg/kg/day
NOAEL [8, 16]: 25 mg/kg/day
LOAEL ([9]; systemic / hematology / microcytosis / microcytosis): 61.2 mg/kg/day
NEL [9, 22]: 9.9 mg/kg/day
NOAEL [9, 22]: 24.9 mg/kg/day
LEL ([9]; systemic / pathology microscopic / gallbladder / pigmentation): 24.9 mg/kg/day
LEL [10, 17]: 50 mg/kg/day
LOAEL [10, 17]: > 50 mg/kg/day
NEL [10, 17]: 25 mg/kg/day
NOAEL [10, 17]: ≥ 50 mg/kg/day
LEL [10, 23]: 50 mg/kg/day
LOAEL [10, 23]: > 50 mg/kg/day
NEL [10, 23]: 25 mg/kg/day
NOAEL [10, 23]: ≥ 50 mg/kg/day
